Legend:
Assay type in all cases: biochemical, mouse (129G1X)
[1] = test system: monoclonal antibody 30C6 (hybridoma 30C6, ATCC HB 10341), IgG induced by haptenic ligand Compound 1a; test: Hydrolysis of benzoate ester Compound 3 catalyzed by monoclonal antibody 30C6 (HPLC assay, Michaelis-Menten kinetics)
Method: Monoclonal antibodies at a concentration of 20 μM were initially screened (phosphate buffer 50 mM, pH 7.5, 100 mM NaCl, 37° degrees C.) against benzoate ester reactant ligand Compound 3, ([…]) for the production of 5-[[4-(hydroxy)phenyl]aming]-5-oxo-pentanoic acid, Compound 4. [Analysis was performed via HPLC on an RP-C18 column eluting with water: acetonitrile (op:10) at a flow of 1 ml/min with UV detector set to 254 nm. The hydrolysis product, Compound 4 (FIG. 1; retention time 7 minutes) was collected (recovered) an found to be identical by RP-HPLC coinjection and mass spectral analysis with an authentic sample.]
The pH dependence of the hydrolysis of substrate Compound 3 was examined in the presence of monoclonal antibodies 30C6 (20 μM) between pH 6.0 and 7.2 (Bis-tris) and 7.2-8.0 (phosphate), both at 50 mM buffer and 100 mM NaCl, 37° degrees C. (FIG. 2).

[2] = test system: monoclonal receptor (antibody) 27A6 (hybridoma 27A6, ATCC HB 10621), IgG induced by hapten Compound 5a; test: Hydrolysis of benzoate ester Compound 3 catalyzed by monoclonal receptor 27A6 (HPLC assay, Michaelis-Menten kinetics)
Method: That monoclonal receptor is also referred to as receptor or antibody 27A6.
Purified monoclonal antibodies were dialyzed against EPPS buffer (I mM, pH 8.0, 100 mM NaCl) or CHES buffer (1 mM, pH 8.0, 100 mM NaCl). Its protein concentration was determined by the BCA method (Pierce). Assays were performed by HPLC (reverse-phase column, C18, VYDAC 201Tp54) with C3 CN/H2 O (0.1 percent TFA) on an isocratic program of 10/90. An internal standard of o-acetamidophenol was used to calculate the amount of product formed [4-(carboxybutyramido)phenol].
Reactions contained 5 percent cosolvent dioxane, and the temperature was maintained at 37°±0.1°degrees C. Initial linear rates were measured at<5 percent hydrolysis of the total substrate. […] Kinetic parameters Vmax Km were determined by nonlinear least-squares fitting of the initial rate vs. substrate concentration to a hyperbolic curve described by the Michaelis-Menten equation.

[3] = test system: the three catalytic monoclonal antibodies obtained to hapten Compound 5a; test: HPLC screen of hydrolysis of Compound 3 by catalytic antibodies, inhibition by free hapten; settings: 50 μM inhibitor; antibody 20 μM, Compound 3 500 μM, phosphate 50 mM, pH 7.5, 100 mM NaCl, 37 degrees C
Method: Antibodies at a concentration of 20μM were initially screened (phosphate buffer, 50 mM, pH 7.5, 100 mM NaCl, 37° degrees C.) via an HPLC assay against benzoate ester Compound 3, (500 μM) for the production of 5-[(4-hydroxyphenyl)aming]-5-oxopentanoic acid, Compound 4.

[4] = test system: monoclonal receptor (antibody) 27A6 (hybridoma 27A6, ATCC HB 10621), IgG induced by hapten Compound 5a; test: Chemical modification of antibody 27A6, then assay of catalytic (esterolytic) activity by HPLC
Method: The esterolytic activity of monoclonal receptor 27A6 was unaffected by treatment with diethyl pyrocarbonate or maleic anhydride in fifty-fold molar excess to protein.
(a) Phenylglyoxal; a 50 μl aliquot of a phenylglyoxal solution (6 mM), (125 mM NaHCO3, pH 7.5) was added to buffer 195 μl (125 mM, pH 7.5 NaHCO3), containing antibody (20 μM). The mixture was vortexed and left to stand for one hour at room temperature. This reaction mixture was then transferred to a microdialyzer (Pierce) and dialyzed with 125 mM, pH 7.5 NaHCO3 with a flow through of approximately 150 ml/hour for two hours. The microdialyzer was then flushed with 4×60 ml portions of pH 8.4, 50 mM CHES, 100 mM NaCl and left to stand in this buffer overnight (about 15-18 hours). The microdialyzer was again flushed 3×50 ml portions of pH 8.4, 50 mM CHES, 100 mM NaCl the next morning. Samples were removed, protein concentrations recalculated (BCA) and assays run for catalytic activity (HPLC) or binding (ELISA). A similar procedure was used with hapten present (200 μM).
(b) Maleic anhydride; a […] aliquot of a maleic anhydride solution (0.06 M, dioxane) was added to 299 μl of 20 mM, pH 8.9 borate, 100 mM NaCl containing 20 μM of antibody. The solution was vortexed and left to stand at room temperature for one hour. This reaction mixture was then transferred to a microdialyzer and dialyzed as described above with 50 mM CHES, pH 8.4, 100 mM NaCl. Samples were removed, protein concentrations calculated (BCA), and assays run for catalytic activity or binding.
(c) Diethyl pyrocarbonate; 10 μl of a 0.6 M diethylpyrocarbonate solution in ethanol was diluted into 1 ml of sodium acetate (NaOAc) (150 mM, pH 6, 100 mM NaCl). Five microliters of that solution were added to 299 μl of NaOAc (150 mM, pH 6.0, 100 mM NaCl) containing 20 µM of antibody. The mixture was vortexed and left to stand at 4° degrees C. overnight (about 15-18 hours). This reaction mixture was then transferred to a microdialyzer and dialyzed as described above with CHES (50 mM, pH 8.4, 100 mM NaCl). Samples were removed, protein concentrations determined (BCA) and assays performed for catalytic activity and binding.

[5] = hydrolysis of Compound 3, 50 mM phosphate, 100 mM NaCl, pH 7.2, 37 degrees C, antibody 20 μM
[6] = treatment with reagent in fifty-fold molar excess to protein

Q: What does the source list for `O=C(O)CCCC(=O)Nc1ccc(OC(=O)c2ccccc2)cc1` [Compound 3]?
A: Kcat^app [1, 5]: 5±0.2×10^-3 min^-1; Km [1, 5]: 1.12 ± 0.05 mM; ratio of kcat/ko (rate acceleration by the antibody over hydrolysis in water) ([1]; pH independent antibody-catalyzed rate vs hydrolysis of Compound 3 in water): over a million fold; Kcat^app ([2]; hydrolysis of Compound 3, 50 mM EPPS, 100 mM NaCl, pH 8.5, 37 degrees C): 0.01 ± 0.002 min⁻¹

Q: How did the inhibition of catalysis [3] turn out when `Nc1ccc(CC(O)c2ccccc2C(=O)O)cc1` (stereo not shown) [Compound 5b] was run?
A: completely inhibited

Q: And the Ki ([2]; competitive inhibitor, substrate Compound 3, read-out: K (competitive inhibition of the antibody-catalyzed hydrolysis of Compound 3))?
A: 6 ± 2 µM

Q: For `CCOC(=O)OC(=O)OCC` [diethyl pyrocarbonate], which “esterolytic activity after treatment” value [4, 6] is on record?
A: unaffected

Q: With `O=C1C=CC(=O)O1` [maleic anhydride] as the molecule, how does the “esterolytic activity after treatment” value [4, 6] read?
A: unaffected

Q: `O=CC(=O)c1ccccc1` [phenylglyoxal] was tested. Which “loss of catalytic activity in the presence of inhibitor Compound 5b” value ([4]; reagent in fifty-fold molar excess, Compound 5b five-fold molar excess to protein) did it give?
A: 35%

Q: And the “loss of catalytic activity” value [4, 6]?
A: 75%

From US5187086A, “Molecules with antibody combining sites that catalyze hydrolysis reactions through use of a charged hapten” (Scripps Clinic and Research Foundation, priority 1991, dated 1993)
